PubChem BioAssay (NCI)
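Five concentrations, 48 hours, 96-well plates. GI50 is the concentration that inhibits growth by half. TGI marks complete inhibition of growth.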

Columns and labels:
Assay in all cases: NCI-60 cell line screen, 48 h
786-0 renal = tested on: 786-0 renal
A498 renal = tested on: A498 renal
A549 NSCLC = tested on: A549 NSCLC
ACHN renal = tested on: ACHN renal
BT-549 breast = tested on: BT-549 breast
CAKI-1 renal = tested on: CAKI-1 renal
CCRF-CEM leukemia = tested on: CCRF-CEM leukemia
COLO 205 colon = tested on: COLO 205 colon
DU-145 prostate = tested on: DU-145 prostate
EKVX NSCLC = tested on: EKVX NSCLC
HCC-2998 colon = tested on: HCC-2998 colon
HCT-116 colon = tested on: HCT-116 colon
HCT-15 colon = tested on: HCT-15 colon
HL-60(TB) leukemia = tested on: HL-60(TB) leukemia
HOP-62 NSCLC = tested on: HOP-62 NSCLC
HOP-92 NSCLC = tested on: HOP-92 NSCLC
HS 578T breast = tested on: HS 578T breast
HT29 colon = tested on: HT29 colon
K-562 leukemia = tested on: K-562 leukemia
KM12 colon = tested on: KM12 colon
LOX IMVI melanoma = tested on: LOX IMVI melanoma
M14 melanoma = tested on: M14 melanoma
MALME-3M melanoma = tested on: MALME-3M melanoma
MCF7 breast = tested on: MCF7 breast
MDA-MB-435 = tested on: MDA-MB-435
MOLT-4 leukemia = tested on: MOLT-4 leukemia
NCI-H226 lung = tested on: NCI-H226 lung
NCI-H23 lung = tested on: NCI-H23 lung
NCI-H460 lung = tested on: NCI-H460 lung
NCI-H522 lung = tested on: NCI-H522 lung
NCI/ADR-RES ovarian = tested on: NCI/ADR-RES ovarian
OVCAR-3 ovarian = tested on: OVCAR-3 ovarian
OVCAR-4 ovarian = tested on: OVCAR-4 ovarian
OVCAR-5 ovarian = tested on: OVCAR-5 ovarian
OVCAR-8 ovarian = tested on: OVCAR-8 ovarian
PC-3 prostate = tested on: PC-3 prostate
RXF 393 renal = tested on: RXF 393 renal
SF-268 CNS = tested on: SF-268 CNS
SF-295 CNS = tested on: SF-295 CNS
SF-539 CNS = tested on: SF-539 CNS
SK-MEL-2 melanoma = tested on: SK-MEL-2 melanoma
SK-MEL-28 melanoma = tested on: SK-MEL-28 melanoma
SK-MEL-5 melanoma = tested on: SK-MEL-5 melanoma
SK-OV-3 ovarian = tested on: SK-OV-3 ovarian
SN12C renal = tested on: SN12C renal
SNB-19 CNS = tested on: SNB-19 CNS
SNB-75 CNS = tested on: SNB-75 CNS
SR leukemia = tested on: SR leukemia
SW-620 colon = tested on: SW-620 colon
T-47D breast = tested on: T-47D breast
TK-10 renal = tested on: TK-10 renal
U251 CNS = tested on: U251 CNS
UACC-257 melanoma = tested on: UACC-257 melanoma
UACC-62 melanoma = tested on: UACC-62 melanoma
UO-31 renal = tested on: UO-31 renal

Work on C=C(C[C@](O)(C(=O)/C=C/c1ccc(Cl)cc1)C(=O)OC)c1ccccc1 yielded a GI50 (786-0 renal) of 1.66 µM, a TGI (786-0 renal) of 3.24 µM and a GI50 (A498 renal) of 11.6 µM. The TGI (A498 renal) was 23.8 µM, the GI50 (A549 NSCLC) was 6.63 µM and the TGI (A549 NSCLC) was 21.8 µM. For the same molecule, the GI50 (ACHN renal) was 2.17 µM, the TGI (ACHN renal) was 5.2 µM and the GI50 (BT-549 breast) was 2.86 µM. For the same molecule, the TGI (BT-549 breast) was 10.7 µM, the GI50 (CAKI-1 renal) was 7 µM and the TGI (CAKI-1 renal) was 20.7 µM. The GI50 (CCRF-CEM leukemia) was 2.86 µM, the TGI (CCRF-CEM leukemia) was 13 µM and the GI50 (COLO 205 colon) was 2 µM. For the same molecule, the TGI (COLO 205 colon) was 4.36 µM, the GI50 (DU-145 prostate) was 3.03 µM and the TGI (DU-145 prostate) was 10.7 µM. The GI50 (EKVX NSCLC) was 4.16 µM, the TGI (EKVX NSCLC) was 16.9 µM and the GI50 (HCC-2998 colon) was 1.84 µM. It also gave a TGI (HCC-2998 colon) of 3.42 µM, a GI50 (HCT-116 colon) of 1.92 µM and a TGI (HCT-116 colon) of 3.96 µM. The GI50 (HCT-15 colon) was 1.45 µM, the TGI (HCT-15 colon) was 3.52 µM and the GI50 (HL-60(TB) leukemia) was 2.72 µM. It also gave a TGI (HL-60(TB) leukemia) of 7.83 µM, a GI50 (HOP-62 NSCLC) of 2.72 µM and a TGI (HOP-62 NSCLC) of 9.03 µM. The GI50 (HOP-92 NSCLC) was 4.07 µM, the TGI (HOP-92 NSCLC) was 15.5 µM and the GI50 (HS 578T breast) was 4.11 µM. For the same molecule, the TGI (HS 578T breast) was 34.6 µM, the GI50 (HT29 colon) was 1.9 µM and the TGI (HT29 colon) was 4.65 µM. It also gave a GI50 (K-562 leukemia) of 2.12 µM, a TGI (K-562 leukemia) of 8.8 µM and a GI50 (KM12 colon) of 1.81 µM. For the same molecule, the TGI (KM12 colon) was 4.24 µM, the GI50 (LOX IMVI melanoma) was 0.719 µM and the TGI (LOX IMVI melanoma) was 2.24 µM. For the same molecule, the GI50 (M14 melanoma) was 2.98 µM, the TGI (M14 melanoma) was 11.3 µM and the GI50 (MALME-3M melanoma) was 12.4 µM. For the same molecule, the TGI (MALME-3M melanoma) was 26.5 µM, the GI50 (MCF7 breast) was 0.456 µM and the TGI (MCF7 breast) was 4.38 µM. It also gave a GI50 (MDA-MB-435) of 1.95 µM, a TGI (MDA-MB-435) of 4.84 µM and a GI50 (MOLT-4 leukemia) of 2.59 µM. The TGI (MOLT-4 leukemia) was 8.35 µM, the GI50 (NCI-H226 lung) was 3.48 µM and the TGI (NCI-H226 lung) was 16.3 µM. It also gave a GI50 (NCI-H23 lung) of 2.82 µM, a TGI (NCI-H23 lung) of 11.9 µM and a GI50 (NCI-H460 lung) of 2.44 µM. It also gave a TGI (NCI-H460 lung) of 6.31 µM, a GI50 (NCI-H522 lung) of 2.25 µM and a TGI (NCI-H522 lung) of 6.95 µM. For the same molecule, the GI50 (NCI/ADR-RES ovarian) was 3.11 µM, the TGI (NCI/ADR-RES ovarian) was 17.1 µM and the GI50 (OVCAR-3 ovarian) was 1.56 µM. For the same molecule, the TGI (OVCAR-3 ovarian) was 3.08 µM, the GI50 (OVCAR-4 ovarian) was 3.07 µM and the TGI (OVCAR-4 ovarian) was 15.6 µM. The GI50 (OVCAR-5 ovarian) was 3.48 µM, the TGI (OVCAR-5 ovarian) was 13.1 µM and the GI50 (OVCAR-8 ovarian) was 3.43 µM. The TGI (OVCAR-8 ovarian) was 12.8 µM, the GI50 (PC-3 prostate) was 2.7 µM and the TGI (PC-3 prostate) was 9.04 µM. For the same molecule, the GI50 (RXF 393 renal) was 1.66 µM, the TGI (RXF 393 renal) was 3.31 µM and the GI50 (SF-268 CNS) was 2.55 µM. The TGI (SF-268 CNS) was 8.13 µM, the GI50 (SF-295 CNS) was 7.96 µM and the TGI (SF-295 CNS) was 20.7 µM. It also gave a GI50 (SF-539 CNS) of 2.12 µM, a TGI (SF-539 CNS) of 4.93 µM and a GI50 (SK-MEL-2 melanoma) of 13.3 µM. It also gave a TGI (SK-MEL-2 melanoma) of 27.1 µM, a GI50 (SK-MEL-28 melanoma) of 2.04 µM and a TGI (SK-MEL-28 melanoma) of 4.98 µM. For the same molecule, the GI50 (SK-MEL-5 melanoma) was 4.11 µM, the TGI (SK-MEL-5 melanoma) was 14.6 µM and the GI50 (SK-OV-3 ovarian) was 11.1 µM. For the same molecule, the TGI (SK-OV-3 ovarian) was 23.1 µM, the GI50 (SN12C renal) was 2.41 µM and the TGI (SN12C renal) was 6.1 µM. It also gave a GI50 (SNB-19 CNS) of 3.69 µM, a TGI (SNB-19 CNS) of 12.8 µM and a GI50 (SNB-75 CNS) of 8.43 µM. It also gave a TGI (SNB-75 CNS) of 21.8 µM, a GI50 (SR leukemia) of 1.59 µM and a TGI (SR leukemia) of 7.7 µM. For the same molecule, the GI50 (SW-620 colon) was 2.05 µM, the TGI (SW-620 colon) was 5.04 µM and the GI50 (T-47D breast) was 1.29 µM. It also gave a TGI (T-47D breast) of 3.65 µM, a GI50 (TK-10 renal) of 2.33 µM and a TGI (TK-10 renal) of 6.21 µM. It also gave a GI50 (U251 CNS) of 1.85 µM, a TGI (U251 CNS) of 3.74 µM and a GI50 (UACC-257 melanoma) of 13.1 µM. For the same molecule, the TGI (UACC-257 melanoma) was 25.8 µM, the GI50 (UACC-62 melanoma) was 2.03 µM and the TGI (UACC-62 melanoma) was 4.58 µM. The GI50 (UO-31 renal) was 1.56 µM and the TGI (UO-31 renal) was 3.2 µM.
